# According to US7803910B2, “Soluble CD164 polypeptides” (Merck Serono S.A., priority 2005, dated 2010):
# Key:
# [1] = system: C3H mice; assay: Concanavalin A-induced hepatitis in mice; type: in vivo; conditions: 0.3 mg/kg, sc
# Source text: Several sCD164 variants have been shown in vitro to inhibit secretion of certain cytokines by ConA-stimulated human peripheral blood mononuclear cells (PBMC), see Examples 2 and 3 above. Since cytokines play a crucial role in T-cell induced ConA induced liver hepatitis (Seino et al. 2001, Kusters, 1996; Toyonaga et al. 1994), the present model was used to further test the sCD164 variants.
# Eighteen hours later, the animals were sacrificed and the blood was sampled. Serum levels of transaminases (alanine transaminase (ALAT), aspartate aminotransferase (ASAT)) were determined in serum using a clinical analyzer (Hitachi). Dexamethasone (0.3 mg/kg, sc) was used as reference.
# [2] = system: peritoneal recruitment of macrophages; assay: Thioglycollate-induced leukocyte peritoneal recruitment assay; type: in vivo, C3H mice; conditions: 1 mg/kg
# Description: The effect of a sCD164 variant on immune cells recruitment was tested using the thioglycollate-induced leukocyte peritoneal recruitment assay. In this example the capacity of ssCD164-Fc (SEQ ID NO: 16) to decrease monocytes/macrophage recruitment was evaluated.
# Forty-eight hours after the challenge, the animals were sacrificed and the lavage of the peritoneal cavity was conducted using 2×5 ml PBS-1 mM EDTA (+4° C.). After centrifugation (10 min at 3000 rpm), the pellet was resuspended in 1 ml PBS. The peritoneal cells were counted using a Beckman/Coulter counter. Dexamethasone (1 mg/kg), the anti-inflammatory compound was used as reference positive control.
# [3] = system: LPS-induced TNF-α release; assay: LPS induced TNF-α release animal model (Example 10); type: in vivo, C3H/HeN mice; conditions: 0.1 mg/kg, sc, 15 minutes prior to LPS; plasma 90 minutes after LPS; p<0.001
# Description: LPS(O111:B4; SIGMA) is injected (0.3 mg/kg, ip) in C3H/HeN mice (Charles River, France). Ninety minutes later blood is sampled and plasma TNF-α is determined using an ELISA kit (R&D). The CD164 variant to be tested and dexamethasone are diluted in PBS and injected (Sf-CD164 at 0.03, 0.1 and 0.3 mg/kg, iv; or dexamethasone at 0.1 mg/kg, sc) 15 minutes prior to LPS administration.
# [4] = system: female mice (Balb/c); assay: Dextran Sodium Sulfate-induced ulcerative colitis model; type: in vivo
# Description: The DSS model of colitis mimics some aspects of the human affection such as macrophage infiltration and up regulation of inflammatory cytokines (i.e. TNFα, IL-1p, IL-6) in the colon mucosa.
# Ulcerative colitis (UC) was induced in female mice (Balb/c, 20-22 g, Elevage Janvier) by Dextran Sodium Sulfate (DSS 4%) administered in drinking water (oral route). The mice had free access to DSS during 7 days. Body weight was determined daily. The severity of the UC was assessed by a clinical score estimating the constituency of the stool (0=firm, 1=loose, 2=diarrhea) and the presence of blood (0=no blood, 1=occult blood, 2=gross rectal bleeding). Seven days after the induction of the disease, the animals were sacrificed. The length and the weight of the colon were determined and the ratio Weight/Length/100 g body weight was calculated. The spleen weight was also determined. Blood was sampled to determine serum amyloid protein (SAA) using a specific ELISA.
# Test substances or vehicle (PBS/0.02% BSA) was administered at days 3, 4, 5 and 6 after the induction of the UC. Enbrel® (1 mg/kg, sc) was used as reference compound. Three studies were performed as per the following table:
# In Study 3, the content of IL-1β in the colon was also measured.
# [5] = system: Balb/c mice; assay: K/BxN serum transfer model of arthritis; type: in vivo; conditions: 10 mg/kg sc once daily, 3 days per week
# Description: This is a passive model of arthritis, induced by serum transfer of K/B×N mice (spontaneously develop arthritis) to naïve mice. This model depends on macrophages and neutrophils. Inflammatory cytokines such as TNFα and IL-1β play an important role in the development of the disease.
# Eight week old Balb/c mice (Charles River) received by iv route 150 μl of K/B×N serum (Charles McKay, Australia), containing high level of auto-antibodies against glucose-6-phosphate isomerase. They evolved severe arthritis assessed with a clinical score (0-12) evaluating the presence of swelling, erythema, edema, joint rigidity and ankylosis. The final score was the sum of scores on individual paws. The swelling of ankle, fore paw and hind paw was measure using a caliper. The clinical score and the swelling were determined every day. Fourteen days after the induction of the disease blood was sampled to determine osteocalcin and the legs were removed and fixed in formalin for histology.
# Enbrel® (10 mg/kg, sc, once daily, 3 days a week) was used as reference compound.
# [6] = Study 1, reference 1 mg/kg, ip (so in the source)
compound,measurement,setting,value
"C[C@@H]1C[C@H]2[C@@H]3CCC4=CC(=O)C=C[C@]4(C)[C@@]3(F)[C@@H](O)C[C@]2(C)[C@@]1(O)C(=O)CO [Dexamethasone, reference compound]",reduction of the level of serum transaminases,[1],96%
same,reduction of peritoneal recruitment of macrophages,[2]; iv,94%
same,reduction of peritoneal recruitment of macrophages,[2]; sc,61%
same,inhibition of LPS-induced TNF-α release,[3],72%
Enbrel® [reference compound],body weight loss,[4]; [6],not prevented
same,"colon reduction, length",[4]; [6],−24%
same,"colon reduction, ratio weight/length",[4]; [6],−29%
same,increase in serum amyloid protein A,[4]; [6],−37%
same,splenomegaly,[4]; [6],not prevented
same,clinical score,"[4]; Study 1, reference 1 mg/kg, ip (so in the source), day 6",−23%
same,"colon reduction, length","[4]; Study 2, 1 mg/kg, sc",−17%
same,"colon reduction, ratio weight/length","[4]; Study 2, 1 mg/kg, sc",−31%
same,increase in serum amyloid protein A,"[4]; Study 2, 1 mg/kg, sc",−36%
same,splenomegaly,"[4]; Study 2, 1 mg/kg, sc",not improved
same,clinical score,"[4]; Study 2, 1 mg/kg, sc, day 5",−21%
same,"colon reduction, length","[4]; Study 3, 1 mg/kg, sc",−29%
same,"colon reduction, ratio weight/length","[4]; Study 3, 1 mg/kg, sc",−33%
same,content of IL-1β in colon,"[4]; Study 3, 1 mg/kg, sc",trended to reduce
same,serum amyloid A protein,"[4]; Study 3, 1 mg/kg, sc",trended to reduce
same,splenomegaly,"[4]; Study 3, 1 mg/kg, sc",−27%
same,body weight loss,"[4]; Study 3, 1 mg/kg, sc, day 5",−83%
same,clinical score,"[4]; Study 3, 1 mg/kg, sc, day 5",−38%
same,clinical score,"[4]; Study 3, 1 mg/kg, sc, day 7",−30%
same,decrease of clinical score,[5]; Study 1,25%
same,decrease of paw swelling,[5]; Study 1,36%
same,decrease of serum osteocalcin,[5]; Study 1,86%
same,decrease of clinical score,[5]; Study 2,31%
same,decrease of paw swelling,[5]; Study 2,38%
same,decrease of serum osteocalcin,[5]; Study 2,64%
